Values quoted from earlier work in publication PMC10651166 (Journal of acquired immune deficiency syndromes (1999), 2023).
Converted amounts (≈) assume the structure as drawn.

Tested on: wild-type virus (HIV)
Details: protein-adjusted

In the case of CC(C)CN(C[C@@H](O)[C@H](Cc1ccccc1)NC(=O)O[C@H]1CO[C@H]2OCC[C@H]21)S(=O)(=O)c1ccc(N)cc1 [Darunavir], the EC50 is listed as 0.055 mg/L (≈ 0.1 µM).
